Columns and labels:
E-Selectin = test: CAM ELISA: E-selectin expression on TNF-stimulated HUVECs; assay type: cell-based; details: Homo sapiens, Endothelial cell, 1 μM compound; primary human umbilical vein endothelial cells; compound 24 hours, then TNF 5 ng/mL 6 hours
Method in brief: (§1)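 Pooled primary HUVECs (passages 3–7), hydrocortisone-free medium, pretreated 24 h with compound at 37° C, then stimulated with TNF 5 ng/mL for 6 h. Surface VCAM-1, ICAM-1 or E-selectin measured by cell ELISA: specific mouse primary antibody, HRP anti-mouse secondary, OPD development, absorbance at 490 nm.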

ICAM-1 = test: CAM ELISA: ICAM-1 expression on TNF-stimulated HUVECs; assay type: cell-based; details: Homo sapiens, Endothelial cell, 1 μM compound; primary human umbilical vein endothelial cells; compound 24 hours, then TNF 5 ng/mL 6 hours
Method in brief: as §1

VCAM-1 = test: CAM ELISA: VCAM-1 expression on TNF-stimulated HUVECs; assay type: cell-based; details: Homo sapiens, Endothelial cell, 1 μM compound; primary human umbilical vein endothelial cells; compound 24 hours, then TNF 5 ng/mL 6 hours
Method in brief: as §1

- melting point: 129 to 132 °C
Structure (SMILES): O=C(NCCO)c1cc2c(Oc3ccc(Cl)cc3)cnc(Cl)c2s1 [Example 313, 7-Chloro-4-(4-chlorophenoxy)-N-(2-hydroxyethyl)thieno[2,3-c]pyridine-2-carboxamide]
- inhibition at 1 µM (E-Selectin): 57%
- inhibition at 1 µM (ICAM-1): 68%
- inhibition at 1 µM (VCAM-1): 39%

Source: US6579882B2, “Cell adhesion-inhibiting antiinflammatory compounds” (Abbott Laboratories, priority 1998, dated 2003)
